Assay results taken from patent US20240300940A1, “Phenothiazinyl Compounds and Uses” (Prosetta Biosciences, Inc., priority 2023, published 2024).
Like-named read-outs stand apart in the source and are kept apart here.

How the values were obtained:
E. faecium ATCC27270 [1] = experiment: MIC assay, serial dilution; conditions: Enterococcus faecium
E. faecium ATCC27270 [2] = experiment: Minimum bactericidal concentration assay; type: cell-based; conditions: Enterococcus faecium
Procedure: (§1) The study was done based on CLSI document M26-A Wayne, PA: Clinical and laboratory standard institute: 1999.
(§2) After determination of a MIC in a broth system under standard conditions, measured aliquots of growth media may be sub-cultured quantitatively to solid media to assess bactericidal activity. To calculate the extent of killing at each antibiotic concentration, plates are incubated under appropriate conditions, colony counts are performed and results are compared to that of the growth control well. The accepted definition of the minimum bactericidal concentration (MBC) is the lowest concentration of test compound at which a 99.9% (3 log) or greater reduction in growth compared with the initial inoculum is observed. […] (Table 4).

S. pneumoniae ATCC49619 [3] = experiment: Minimum bactericidal concentration assay; type: cell-based; conditions: Streptococcus pneumoniae
Procedure: as §1, §2

S. epidermidis ATCC14990 [4] = experiment: Minimum bactericidal concentration assay; type: cell-based; conditions: Staphylococcus epidermidis
Procedure: as §1, §2

S. pyogens ATCC49399 [5] = experiment: Minimum bactericidal concentration assay; type: cell-based; conditions: Streptococcus
Procedure: as §1, §2

S. aureus ATCC25923 [6] = experiment: Minimum bactericidal concentration assay; type: cell-based; conditions: Staphylococcus aureus
Procedure: as §1, §2

E. faecalis ATCC29212 [7] = experiment: Minimum bactericidal concentration assay; type: cell-based; conditions: Enterococcus faecalis
Procedure: as §1, §2

MRSA ATCC 43300 [8] = experiment: Minimum biofilm inhibition assay; type: cell-based, S. aureus
Procedure: The biofilm susceptibility assay and calculation of the percent reduction of AB were performed as described previously (Pettit et al., Antimicrob Agents Chem 2005, 49:2612-17). Biofilm formation was induced by growing MRSA on TSA containing 2% glucose at 37° C. for 24 hrs. After the incubation, culture was used to adjust the cell number to 1-5×10^5 CFU/mL. In parallel, two-fold dilutions of test drug/antibiotic in DMSO/solvent was prepared separately in a PCR dilution plate. 100 μL of CFU adjusted 100 μL of culture was added to 96 well plate by leaving wells for only media control. After adding culture, 2-fold diluted compound in 100% DMSO was added to 96 well plate and plates were incubated another 16-20 hrs at 37° C., to check susceptibility of biofilm forming MRSA with test drug/antibiotic. After susceptibility incubation, Resazurin was added to check inhibition of biofilm forming cells.

S. pneumoniae ATCC49619 [9] = experiment: MIC assay, serial dilution; conditions: Streptococcus pneumoniae
A. baumannii ATCC19606 = experiment: MIC assay, serial dilution; conditions: Acinetobacter baumannii
Sensitive strain = experiment: Cross resistance test (MIC); conditions: read-out: MIC, Sensitive strain
S. aureus ATCC25923 [10] = experiment: MIC assay, serial dilution; conditions: Staphylococcus aureus
S. epidermidis ATCC14990 [11] = experiment: MIC assay, serial dilution; conditions: Staphylococcus epidermidis
Organ exposure in mice = conditions: mice IV 3 mg/kg
MRSA/S. aureus isolates = experiment: MIC50 against isolates; type: cell-based; conditions: Staphylococcus aureus
MRSA ATCC 43300 [12] = experiment: Serum effect on antibacterial activity (MIC); type: cell-based, S. aureus; conditions: Staphylococcus aureus
E. coli ATCC25922 = experiment: MIC assay, serial dilution; conditions: Escherichia coli
[13] = test system: different species of gram-positive bacteria; experiment: MIC assay, summary over gram-positive species; conditions: exception E. faecalis
[14] = Mouse plasma pharmacokinetics
Procedure: For the mouse plasma pharmacokinetic analyses, the study was conducted in BALB/c mice with single dose of IV-3 mg/kg. Blood samples were collected at 10 time points/dose (0.25, 0.5, 1, 2, 4, 6, 8, 10, 12, and 24 h post dose). At each time point, blood samples were collected from 4 mice from the retro-orbital plexus. A terminal blood collection method was employed for collecting blood samples for each time point in all PK studies. […] The PK parameters were estimated by noncompartmental analysis.
Dose—mg/kg, AUC—ng. h/mL, Cmax-ng/mL, Tmax-h, Kel—1/h, Half-life-h, MRT-h, Clearance—mL/min/kg, Vd-L/kg, Bioavailability-%. IV—Intravenous, IP— Intraperitoneal, PO—Per oral.

E. faecalis ATCC29212 [15] = experiment: MIC assay, serial dilution; conditions: Enterococcus faecalis
S. pyogens ATCC49399 [16] = experiment: MIC assay, serial dilution; conditions: Streptococcus
[17] = BALB/c, mouse, in vivo, iv, 3 mg/kg

CC1(C)C2CN(c3ccc4nc5ccc(N6CC7C(C6)C7(C)C)cc5[s+]c4c3)CC21 (centres unmarked) [Compound 1, 3,7-Di(6,6-dimethyl-3-azabicyclo[3.1.0]hexan-N-yl)phenothiazinium iodide]
MIC (E. faecium ATCC27270 [1]): 0.5 µg/mL
MBC (E. faecium ATCC27270 [2]): 0.5 µg/mL
MBC (S. pneumoniae ATCC49619 [3]): 0.5 µg/mL
MBC (S. epidermidis ATCC14990 [4]): 1 µg/mL
MBC (S. pyogens ATCC49399 [5]): 0.5 µg/mL
MBC (S. aureus ATCC25923 [6]): 0.25 µg/mL
MBC (E. faecalis ATCC29212 [7]): 2 µg/mL
MBIC (MRSA ATCC 43300 [8]; MRSA ATCC 43300, biofilm forming): 0.25
concentration inhibiting biofilm forming MRSA (MRSA ATCC 43300 [8]; biofilm forming MRSA): 1 × MIC
MIC (S. pneumoniae ATCC49619 [9]): 0.25 µg/mL
MIC (A. baumannii ATCC19606): 2 µg/mL
MIC (Sensitive strain): 0.25 µg/mL
MIC (S. aureus ATCC25923 [10]): 0.25 µg/mL
MIC (S. epidermidis ATCC14990 [11]): 0.5 µg/mL
Organ exposure, concentration (Organ exposure in mice; Brain, 0.5 hrs): 81 ng
Organ exposure, concentration (Organ exposure in mice; Brain, 2 hrs): 56 ng
Organ exposure, concentration (Organ exposure in mice; Brain, 24 hrs): 30 ng
Organ exposure, concentration (Organ exposure in mice; Heart, 0.5 hrs): 1335 ng
Organ exposure, concentration (Organ exposure in mice; Heart, 2 hrs): 1951 ng
Organ exposure, concentration (Organ exposure in mice; Heart, 24 hrs): 821 ng
Organ exposure, concentration (Organ exposure in mice; Kidney, 0.5 hrs): 1817 ng
Organ exposure, concentration (Organ exposure in mice; Kidney, 2 hrs): 2179 ng
Organ exposure, concentration (Organ exposure in mice; Kidney, 24 hrs): 637 ng
Organ exposure, concentration (Organ exposure in mice; Liver, 0.5 hrs): 13897 ng
Organ exposure, concentration (Organ exposure in mice; Liver, 2 hrs): 11563 ng
Organ exposure, concentration (Organ exposure in mice; Liver, 24 hrs): 864 ng
Organ exposure, concentration (Organ exposure in mice; Lungs, 0.5 hrs): 13003 ng
Organ exposure, concentration (Organ exposure in mice; Lungs, 2 hrs): 4178 ng
Organ exposure, concentration (Organ exposure in mice; Lungs, 24 hrs): 661 ng
Organ exposure, concentration (Organ exposure in mice; Muscle, 0.5 hrs): 154.5 ng
Organ exposure, concentration (Organ exposure in mice; Muscle, 2 hrs): 324.5 ng
Organ exposure, concentration (Organ exposure in mice; Muscle, 24 hrs): 168.33 ng
MIC50 (MRSA/S. aureus isolates): 0.125 µg/mL
MIC (MRSA ATCC 43300 [12]; MRSA ATCC 43300, 20% serum): 1 µg/mL
MIC (MRSA ATCC 43300 [12]; MRSA ATCC 43300, 40% serum): 2 µg/mL
MIC (MRSA ATCC 43300 [12]; MRSA ATCC 43300, No serum): 0.25 µg/mL
MIC (E. coli ATCC25922; ATCC25922, E. coli ATCC25922): 4 µg/mL
MIC (E. coli ATCC25922; ATCC25922, read-out: Anti-bacterial Activity (E. coli MIC (uM)), E. coli, Table 5): 1.6 µM
MIC range [13]: 0.25 to 0.5 µg/mL
AUC(0-inf) [14, 17]: 2980 ng·h/mL
AUC(0-t) [14, 17]: 2710 ng·h/mL
Cmax [14, 17]: 5620 ng/mL
MRT [14, 17]: 7 h
Tmax [14, 17]: 4.8 min
Vd [14, 17]: 7 L/kg
clearance [14, 17]: 17 mL/min/kg
half-life [14, 17]: 10 h
Kel ([14]; mice, IV 3 mg/kg single dose): 0.07 h⁻¹
MIC (E. faecalis ATCC29212 [15]): 2 µg/mL
MIC (S. pyogens ATCC49399 [16]): 0.25 µg/mL
